{
  "source": "ChEMBL document CHEMBL4616634",
  "about": "“4β-Hydroxywithanolide E from Goldenberry (Whole Fruits of Physalis peruviana L.) as a Promising Agent against Chronic Obstructive Pulmonary Disease” (J Nat Prod, 2020)",
  "key": {"[1]": {"biological_target": "T1, Nuclear factor erythroid 2-related factor 2 (Mus musculus) (UniProt Q60795)", "T1 sequence (whole entry)": "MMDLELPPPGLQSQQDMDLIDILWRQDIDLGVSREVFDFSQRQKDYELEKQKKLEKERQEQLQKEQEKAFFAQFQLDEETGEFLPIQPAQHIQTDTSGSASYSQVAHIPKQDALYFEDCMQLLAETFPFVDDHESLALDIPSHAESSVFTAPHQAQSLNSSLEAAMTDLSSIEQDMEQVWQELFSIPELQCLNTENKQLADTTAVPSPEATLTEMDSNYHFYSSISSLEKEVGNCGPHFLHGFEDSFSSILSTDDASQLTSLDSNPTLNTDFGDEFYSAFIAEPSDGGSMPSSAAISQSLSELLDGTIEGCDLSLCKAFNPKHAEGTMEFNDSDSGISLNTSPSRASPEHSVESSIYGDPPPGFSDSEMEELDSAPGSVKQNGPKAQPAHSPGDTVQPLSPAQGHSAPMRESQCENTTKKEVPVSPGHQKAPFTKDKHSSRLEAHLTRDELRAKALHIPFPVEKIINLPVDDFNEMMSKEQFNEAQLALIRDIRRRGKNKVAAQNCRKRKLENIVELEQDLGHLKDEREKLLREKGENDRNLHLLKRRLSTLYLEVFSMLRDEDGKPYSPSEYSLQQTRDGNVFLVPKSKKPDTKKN", "assay": "Activation of Nrf2 in mouse Hepa1c1c7 cells assessed as increase in quinone reductase activity at 3.12 uM incubated for 24 hrs by MTT based assay", "format": "cell-based"}, "[2]": {"biological_target": "T2, Nuclear factor erythroid 2-related factor 2 (Homo sapiens) (UniProt Q16236)", "T2 sequence (whole entry)": "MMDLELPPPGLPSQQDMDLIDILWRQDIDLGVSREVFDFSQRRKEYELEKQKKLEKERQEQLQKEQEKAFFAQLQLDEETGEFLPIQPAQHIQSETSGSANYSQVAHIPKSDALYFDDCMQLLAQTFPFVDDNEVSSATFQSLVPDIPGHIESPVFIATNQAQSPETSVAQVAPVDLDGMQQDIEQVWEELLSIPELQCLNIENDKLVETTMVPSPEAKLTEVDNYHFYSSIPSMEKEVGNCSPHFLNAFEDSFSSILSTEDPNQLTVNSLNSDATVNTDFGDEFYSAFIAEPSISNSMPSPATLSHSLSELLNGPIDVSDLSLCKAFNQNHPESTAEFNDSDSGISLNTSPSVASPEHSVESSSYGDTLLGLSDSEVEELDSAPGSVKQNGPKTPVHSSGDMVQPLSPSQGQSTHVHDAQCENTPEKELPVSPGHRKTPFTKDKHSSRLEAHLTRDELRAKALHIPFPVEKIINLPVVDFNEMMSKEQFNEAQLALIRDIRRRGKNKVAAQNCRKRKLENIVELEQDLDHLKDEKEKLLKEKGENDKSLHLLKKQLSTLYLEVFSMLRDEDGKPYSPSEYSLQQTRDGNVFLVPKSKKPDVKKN", "assay": "Activation of Nrf2 in human MDA-MB-231 cells assessed as increase in ARE luciferase activity at 0.13 to 2 uM incubated for 16 hrs by luciferase reporter gene assay", "format": "cell-based"}, "[3]": {"biological_target": "T2, Nuclear factor erythroid 2-related factor 2 (Homo sapiens)", "assay": "Activation of Nrf2 in human MDA-MB-231 cells assessed as increase in ARE luciferase activity at 2 uM incubated for 16 hrs by luciferase reporter gene assay", "format": "cell-based"}, "[4]": {"biological_target": "T2, Nuclear factor erythroid 2-related factor 2 (Homo sapiens)", "assay": "Activation of Nrf2 in human MDA-MB-231 cells assessed as increase in luciferase activity incubated for 16 hrs by dual luciferase reporter gene assay", "format": "cell-based"}, "[5]": {"biological_target": "T2, Nuclear factor erythroid 2-related factor 2 (Homo sapiens)", "assay": "Activation of Nrf2 in human MDA-MB-231 cells assessed as increase in Nrf2 protein level at 0.5 uM incubated for 16 hrs by immunoblot analysis", "format": "cell-based"}, "[6]": {"biological_target": "T2, Nuclear factor erythroid 2-related factor 2 (Homo sapiens)", "assay": "Activation of Nrf2 in human BEAS2B cells at 0.25 to 2 uM incubated for 12 hrs by immunoblot analysis relative to SF", "format": "cell-based"}, "[7]": {"biological_target": "T2, Nuclear factor erythroid 2-related factor 2 (Homo sapiens)", "assay": "Activation of Nrf2 in human BEAS2B cells assessed as increase in Nrf2 protein expression at 1 uM incubated for 24 hrs by immunoblot analysis", "format": "cell-based"}, "[8]": {"biological_target": "T2, Nuclear factor erythroid 2-related factor 2 (Homo sapiens)", "assay": "Activation of Nrf2 in human BEAS2B cells assessed as increase in Nrf2 mRNA expression at 0.5 to 2 uM incubated for 24 hrs by qRT-PCR analysis", "format": "cell-based"}, "[9]": {"biological_target": "T2, Nuclear factor erythroid 2-related factor 2 (Homo sapiens)", "assay": "Activation of Nrf2 in human BEAS2B cells assessed as increase in Nrf2 accumulation in nucleus at 1 uM incubated for 8 hrs by immunoblot analysis", "format": "cell-based"}, "[10]": {"biological_target": "T2, Nuclear factor erythroid 2-related factor 2 (Homo sapiens)", "assay": "Stabilization of Nrf2 in human BEAS2B cells harboring (HA)-ubiquitin assessed as suppression of Nrf2 ubiquitination at 1 uM after 8 hrs in presence of MG132 by immunoblot analysis", "format": "cell-based"}, "BEAS-2B": {"test_system": "BEAS-2B", "assay": "Antioxidant activity in human BEAS2B cells assessed as increase in GSH level incubated for 24 hrs", "format": "functional, cell-based"}, "[11]": {"biological_target": "Transcription factor p65 (Mus musculus) (UniProt Q04207)", "sequence (Q04207 whole entry)": "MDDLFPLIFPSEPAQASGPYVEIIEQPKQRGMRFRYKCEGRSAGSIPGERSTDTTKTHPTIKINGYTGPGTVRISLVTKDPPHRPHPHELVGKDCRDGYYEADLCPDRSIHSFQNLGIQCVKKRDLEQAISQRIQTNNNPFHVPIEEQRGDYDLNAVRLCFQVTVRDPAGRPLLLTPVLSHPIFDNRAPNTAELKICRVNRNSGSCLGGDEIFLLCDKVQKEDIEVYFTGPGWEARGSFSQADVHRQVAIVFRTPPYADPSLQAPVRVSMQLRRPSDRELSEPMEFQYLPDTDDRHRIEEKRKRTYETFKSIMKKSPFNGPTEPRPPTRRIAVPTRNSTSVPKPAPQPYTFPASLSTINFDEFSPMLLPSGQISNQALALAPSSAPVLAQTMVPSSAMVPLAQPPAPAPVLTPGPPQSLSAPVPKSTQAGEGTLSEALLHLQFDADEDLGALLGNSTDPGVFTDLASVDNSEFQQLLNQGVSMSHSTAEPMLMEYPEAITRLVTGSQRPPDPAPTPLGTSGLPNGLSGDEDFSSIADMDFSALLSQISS", "assay": "Inhibition of LPS-induced NFkappaB p65 nucleus translocation in mouse RAW264.7 cells at 2 uM pre-incubated for 1 hr followed by LPS-stimulation and measured after 1 hr by immunoblot analysis", "format": "cell-based"}, "RAW264.7 [12]": {"test_system": "RAW264.7", "assay": "Inhibition of LPS-induced NFkappaB activation in mouse RAW264.7 cells assessed as increase in IKBalpha protein expression at 0.5 to 4 uM pre-incubated for 1 hr followed by LPS-stimulation and measured after 2 hrs by immunoblot analysis", "format": "cell-based"}, "RAW264.7 [13]": {"test_system": "RAW264.7", "assay": "Inhibition of LPS-induced COX2 protein expression in mouse RAW264.7 cells at 0.5 to 4 uM preincubated for 1 hr followed by LPS-stimulation and measured after 16 hrs by immunoblot analysis", "format": "functional, cell-based"}, "RAW264.7 [14]": {"test_system": "RAW264.7", "assay": "Inhibition of LPS-induced iNOS mRNA expression in mouse RAW264.7 cells at 0.5 to 4 uM preincubated for 1 hr followed by LPS-stimulation and measured after 6 hrs by qRT-PCR analysis", "format": "functional, cell-based"}, "RAW264.7 [15]": {"test_system": "RAW264.7", "assay": "Inhibition of LPS-induced COX2 mRNA expression in mouse RAW264.7 cells at 0.5 to 4 uM preincubated for 1 hr followed by LPS-stimulation and measured after 6 hrs by qRT-PCR analysis", "format": "functional, cell-based"}, "Mus musculus [16]": {"test_system": "Mus musculus", "assay": "Antiinflammatory activity in C57BL/6 mouse model of CS-induced pulmonary injury assessed as reduction in goblet cell hyperplasia in perivascular areas in lungs at 2 to 4 mg/kg, ip for 5 days by hematoxylin and eosin staining based fluorescence microscopic analysis", "format": "functional, organism-based"}, "Mus musculus [17]": {"test_system": "Mus musculus", "assay": "Antioxidant Activity in C57BL/6 mouse model of CS-induced pulmonary injury assessed as increase in SOD level in lungs at 2 to 4 mg/kg, ip for 5 days", "format": "functional, organism-based"}, "Mus musculus [18]": {"test_system": "Mus musculus", "assay": "Antioxidant Activity in C57BL/6 mouse model of CS-induced pulmonary injury assessed as decrease in MDA level in serum at 2 to 4 mg/kg, ip for 5 days", "format": "functional, organism-based"}, "Mus musculus [19]": {"test_system": "Mus musculus", "assay": "Antiinflammatory activity in C57BL/6 mouse model of CS-induced pulmonary injury assessed as increase in Nrf2 protein expression in lungs at 2 to 4 mg/kg, ip for 5 days by immunoblot analysis", "format": "functional, organism-based"}, "Mus musculus [20]": {"test_system": "Mus musculus", "assay": "Antiinflammatory activity in C57BL/6 mouse model of CS-induced pulmonary injury assessed as decrease in NFkappaB p65 protein expression in lungs at 2 to 4 mg/kg, ip for 5 days by immunoblot analysis", "format": "functional, organism-based"}},
  "note": "Calls of active or inactive are those of the source. The calls are words filed in the database; no cut-off is given here.",
  "data": [
    {"smiles": "CC1=C(C)C(=O)O[C@H]([C@](C)(O)[C@]2(O)CC[C@@]3(O)[C@@H]4C[C@H]5O[C@]56[C@@H](O)C=CC(=O)[C@]6(C)[C@H]4CC[C@]23C)C1", "values": [
      {"measurement": "fold change (FC)", "setting": "[1]", "value": 2.58},
      {"measurement": "Activity", "setting": "[2]", "value": "Active"},
      {"measurement": "fold change (FC)", "setting": "[3]", "value": 8.5},
      {"measurement": "Activity", "setting": "[4]", "value": "Dose-dependent effect"},
      {"measurement": "Activity", "setting": "[5]", "value": "Active"},
      {"measurement": "fold change (FC)", "setting": "[6]", "value": 2},
      {"measurement": "Activity", "setting": "[7]", "value": "inactive"},
      {"measurement": "Activity", "setting": "[8]", "value": "Active"},
      {"measurement": "Activity", "setting": "[9]", "value": "Active"},
      {"measurement": "Activity", "setting": "[10]", "value": "Active"},
      {"measurement": "Activity", "setting": "BEAS-2B", "value": "Active"},
      {"measurement": "inhibition", "setting": "[11]", "value": "Active"},
      {"measurement": "inhibition", "setting": "RAW264.7 [12]", "value": "Active"},
      {"measurement": "inhibition", "setting": "RAW264.7 [13]", "value": "Active"},
      {"measurement": "inhibition", "setting": "RAW264.7 [14]", "value": "Active"},
      {"measurement": "inhibition", "setting": "RAW264.7 [15]", "value": "Active"},
      {"measurement": "Activity", "setting": "Mus musculus [16]", "value": "Active"},
      {"measurement": "Activity", "setting": "Mus musculus [17]", "value": "Active"},
      {"measurement": "Activity", "setting": "Mus musculus [18]", "value": "Active"},
      {"measurement": "Activity", "setting": "Mus musculus [19]", "value": "Active"},
      {"measurement": "Activity", "setting": "Mus musculus [20]", "value": "Active"}
    ]}
  ]
}
